Measurements published in patent US11998539B2, “Substituted aminoquinolones as DGKalpha inhibitors for immune activation” (Bayer Aktiengesellschaft, priority 2019, dated 2024).

biological target: DGKα (Homo sapiens (Human), UniProt P23743); experiment: Human DGKα kinase activity inhibition assay (ADP-Glo); format: biochemical; details: recombinant full-length human DGKα, 55 μM ATP, 7 μM 1,2-dioleoyl-sn-glycerol, read-out: IC50 values of examples in in vitro human DGKa kinase activity inhibition assays
Method in brief: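 Activity was measured as ADP production, detected by luciferase luminescence after removal of unused ATP. The enzyme was baculovirus-expressed full-length human DGKα with a C-terminal FLAG tag. The substrate was 1,2-dioleoyl-sn-glycerol in detergent micelles, and compounds came from 100× DMSO solutions.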

Sequence of DGKα (P23743 other isoform, or with tags, fused parts or gaps): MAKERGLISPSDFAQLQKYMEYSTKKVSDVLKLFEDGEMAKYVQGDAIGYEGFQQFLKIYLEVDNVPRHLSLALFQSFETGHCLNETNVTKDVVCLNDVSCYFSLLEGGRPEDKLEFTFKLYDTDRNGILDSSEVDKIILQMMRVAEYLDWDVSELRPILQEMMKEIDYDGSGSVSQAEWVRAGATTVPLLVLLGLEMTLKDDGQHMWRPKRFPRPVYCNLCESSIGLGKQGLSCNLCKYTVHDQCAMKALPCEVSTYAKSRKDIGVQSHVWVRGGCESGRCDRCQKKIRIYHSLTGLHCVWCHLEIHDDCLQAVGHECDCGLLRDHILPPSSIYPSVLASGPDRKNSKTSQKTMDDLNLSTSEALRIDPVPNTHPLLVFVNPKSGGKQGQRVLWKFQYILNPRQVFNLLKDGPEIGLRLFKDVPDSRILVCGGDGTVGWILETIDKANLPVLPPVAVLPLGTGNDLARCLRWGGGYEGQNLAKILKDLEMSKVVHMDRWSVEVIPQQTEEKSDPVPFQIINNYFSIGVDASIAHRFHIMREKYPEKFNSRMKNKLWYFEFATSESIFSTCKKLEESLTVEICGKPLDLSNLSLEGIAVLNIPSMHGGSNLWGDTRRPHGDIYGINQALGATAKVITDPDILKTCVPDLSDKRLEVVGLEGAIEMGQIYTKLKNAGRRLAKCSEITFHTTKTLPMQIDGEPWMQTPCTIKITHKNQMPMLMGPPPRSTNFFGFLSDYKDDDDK

Question: With COc1ccc(C2CCN(c3c(C#N)c(=O)n(C)c4ccc(-c5ccccc5)cc34)CC2)cc1 [Example 181, 4-[4-(4-methoxyphenyl)piperidin-1-yl]-1-methyl-2-oxo-6-phenyl-1,2-dihydroquinoline-3-carbonitrile] as the compound, how does the IC50 read?
Answer: 150 nM

Question: Which IC50 does the source give for Cc1ccc2oc(C3(C)CCN(c4c(C#N)c(=O)n(C)c5ccc(S(C)(=O)=O)cc45)CC3)nc2c1 [Example 182, 6-(methanesulfonyl)-1-methyl-4-[4-methyl-4-(5-methyl-1,3-benzoxazol-2-yl)piperidin-1-yl]-2-oxo-1,2-dihydroquinoline-3-carbonitrile] here?
Answer: 47 nM

Question: With Cc1ccc2c(c1)c(N1CCC(c3nc4ccc(Cl)cc4o3)CC1)c(C#N)c(=O)n2C [Example 183, 4-[4-(6-chloro-1,3-benzoxazol-2-yl)piperidin-1-yl]-1,6-dimethyl-2-oxo-1,2-dihydroquinoline-3-carbonitrile] as the compound, how does the IC50 read?
Answer: 1.5 nM

Question: For Cc1ccc2nc(C3CCN(c4c(C#N)c(=O)n(C)c5ccc(C)cc45)CC3)oc2c1 [Example 184, 1,6-dimethyl-4-[4-(6-methyl-1,3-benzoxazol-2-yl)piperidin-1-yl]-2-oxo-1,2-dihydroquinoline-3-carbonitrile], which IC50 is on record?
Answer: 1.5 nM

Question: Cc1ccc2c(c1)c(N1CCC(c3nc4cc(Cl)ccc4o3)CC1)c(C#N)c(=O)n2C [Example 185, 4-[4-(5-chloro-1,3-benzoxazol-2-yl)piperidin-1-yl]-1,6-dimethyl-2-oxo-1,2-dihydroquinoline-3-carbonitrile] was tested. Which IC50 did it give?
Answer: 2.9 nM

Question: How did the IC50 turn out when Cc1ccc2c(c1)c(N1CCC(c3nc4cc(C(C)C)ccc4o3)CC1)c(C#N)c(=O)n2C [Example 186, 1,6-dimethyl-2-oxo-4-{4-[5-(propan-2-yl)-1,3-benzoxazol-2-yl]piperidin-1-yl}-1,2-dihydroquinoline-3-carbonitrile] was run?
Answer: 9.1 nM

Question: How did the IC50 turn out when Cc1ccc2oc(C3(C)CCN(c4c(C#N)c(=O)n(C)c5ccc(C)cc45)CC3)nc2c1 [Example 187, 1,6-dimethyl-4-[4-methyl-4-(5-methyl-1,3-benzoxazol-2-yl)piperidin-1-yl]-2-oxo-1,2-dihydroquinoline-3-carbonitrile] was run?
Answer: 2 nM

Question: Which IC50 does the source give for Cc1ccc2nc(C3(C)CCN(c4c(C#N)c(=O)n(C)c5ccc(C)cc45)CC3)oc2c1 [Example 188, 1,6-dimethyl-4-[4-methyl-4-(6-methyl-1,3-benzoxazol-2-yl)piperidin-1-yl]-2-oxo-1,2-dihydroquinoline-3-carbonitrile] here?
Answer: 2.6 nM

Question: Cc1ccc2c(c1)c(N1CCC(C)(c3nc4cc(C(C)C)ccc4o3)CC1)c(C#N)c(=O)n2C [Example 189, 1,6-dimethyl-4-{4-methyl-4-[5-(propan-2-yl)-1,3-benzoxazol-2-yl]piperidin-1-yl}-2-oxo-1,2-dihydroquinoline-3-carbonitrile] was tested. Which IC50 did it give?
Answer: 15 nM

Question: For COc1ccc2c(c1)c(N1CCC(c3nc4ccc(C)cc4o3)CC1)c(C#N)c(=O)n2C [Example 190, 6-methoxy-1-methyl-4-[4-(6-methyl-1,3-benzoxazol-2-yl)piperidin-1-yl]-2-oxo-1,2-dihydroquinoline-3-carbonitrile], which IC50 is on record?
Answer: 5.7 nM

Question: COc1ccc2c(c1)c(N1CCC(C)(c3nc4ccc(C)cc4o3)CC1)c(C#N)c(=O)n2C [Example 191, 6-methoxy-1-methyl-4-[4-methyl-4-(6-methyl-1,3-benzoxazol-2-yl)piperidin-1-yl]-2-oxo-1,2-dihydroquinoline-3-carbonitrile] was tested. Which IC50 did it give?
Answer: 7 nM

Question: Cc1ccc2nc(C3(C)CCN(c4c(C#N)c(=O)n(C)c5ccc(Cl)cc45)CC3)oc2c1 [Example 192, 6-chloro-1-methyl-4-[4-methyl-4-(6-methyl-1,3-benzoxazol-2-yl)piperidin-1-yl]-2-oxo-1,2-dihydroquinoline-3-carbonitrile] was tested. Which IC50 did it give?
Answer: 1360 nM

Question: With Cc1ccc2c(c1)c(N1CCC(c3nc4ccccc4o3)CC1)c(C(N)=O)c(=O)n2C [Example 193, 4-[4-(1,3-benzoxazol-2-yl)piperidin-1-yl]-1,6-dimethyl-2-oxo-1,2-dihydroquinoline-3-carboxamide] as the compound, how does the IC50 read?
Answer: 2.4 nM

Question: Cc1ccc2oc(C3CCN(c4c(C(N)=O)c(=O)n(C)c5ccc(C)cc45)CC3)nc2c1 [Example 194, 1,6-dimethyl-4-[4-(5-methyl-1,3-benzoxazol-2-yl)piperidin-1-yl]-2-oxo-1,2-dihydroquinoline-3-carboxamide] was tested. Which IC50 did it give?
Answer: 2.2 nM

Question: Which IC50 does the source give for Cc1ccc2c(c1)c(N1CCC(C)(c3nc4ccccc4o3)CC1)c(C(N)=O)c(=O)n2C [Example 195, 4-[4-(1,3-benzoxazol-2-yl)-4-methylpiperidin-1-yl]-1,6-dimethyl-2-oxo-1,2-dihydroquinoline-3-carboxamide] here?
Answer: 1.5 nM

Question: Which IC50 does the source give for Cc1ccc2nc(C3CCN(c4c(C(N)=O)c(=O)n(C)c5ccc(C)cc45)CC3)oc2c1 [Example 196, 1,6-dimethyl-4-[4-(6-methyl-1,3-benzoxazol-2-yl)piperidin-1-yl]-2-oxo-1,2-dihydroquinoline-3-carboxamide] here?
Answer: 3.1 nM

Question: For Cc1ccc2nc(C3(C)CCN(c4c(C(N)=O)c(=O)n(C)c5ccc(C)cc45)CC3)oc2c1 [Example 197, 1,6-dimethyl-4-[4-methyl-4-(6-methyl-1,3-benzoxazol-2-yl)piperidin-1-yl]-2-oxo-1,2-dihydroquinoline-3-carboxamide], which IC50 is on record?
Answer: 2.2 nM

Question: How did the IC50 turn out when Cc1ccc2oc(C3(C)CCN(c4c(C(N)=O)c(=O)n(C)c5ccc(C)cc45)CC3)nc2c1 [Example 198, 1,6-dimethyl-4-[4-methyl-4-(5-methyl-1,3-benzoxazol-2-yl)piperidin-1-yl]-2-oxo-1,2-dihydroquinoline-3-carboxamide] was run?
Answer: 2.1 nM

Question: Which IC50 does the source give for Cc1ccc2c(c1)c(N1CCC(C)(c3nc4cc(C(C)C)ccc4o3)CC1)c(C(N)=O)c(=O)n2C [Example 199, 1,6-dimethyl-4-{4-methyl-4-[5-(propan-2-yl)-1,3-benzoxazol-2-yl]piperidin-1-yl}-2-oxo-1,2-dihydroquinoline-3-carboxamide] here?
Answer: 3.4 nM

Question: Which IC50 does the source give for Cc1ccc2c(c1)c(N1CCC(c3nc4cc(C(C)C)ccc4o3)CC1)c(C(N)=O)c(=O)n2C [Example 200, 1,6-dimethyl-2-oxo-4-{4-[5-(propan-2-yl)-1,3-benzoxazol-2-yl]piperidin-1-yl}-1,2-dihydroquinoline-3-carboxamide] here?
Answer: 3.9 nM

Question: For Cc1ccc2c(c1)c(N1CCC(c3nc4cc(Cl)ccc4o3)CC1)c(C(N)=O)c(=O)n2C [Example 201, 4-[4-(5-chloro-1,3-benzoxazol-2-yl)piperidin-1-yl]-1,6-dimethyl-2-oxo-1,2-dihydroquinoline-3-carboxamide], which IC50 is on record?
Answer: 1.1 nM

Question: With Cc1ccc2c(c1)c(N1CCC(c3nc4ccc(Cl)cc4o3)CC1)c(C(N)=O)c(=O)n2C [Example 202, 4-[4-(6-chloro-1,3-benzoxazol-2-yl)piperidin-1-yl]-1,6-dimethyl-2-oxo-1,2-dihydroquinoline-3-carboxamide] as the compound, how does the IC50 read?
Answer: 2.7 nM

Question: For Cc1ccc2oc(C3(C)CCN(c4c(C(N)=O)c(=O)n(C)c5ccc(Br)cc45)CC3)nc2c1 [Example 203, 6-bromo-1-methyl-4-[4-methyl-4-(5-methyl-1,3-benzoxazol-2-yl)piperidin-1-yl]-2-oxo-1,2-dihydroquinoline-3-carboxamide], which IC50 is on record?
Answer: 0.9 nM

Question: Which IC50 does the source give for Cc1ccc2c(c1)c(N1CCCC(c3nc4ccccc4o3)CC1)c(C#N)c(=O)n2C (centres unmarked) [Example 204, 4-[4-(1,3-benzoxazol-2-yl)azepan-1-yl]-1,6-dimethyl-2-oxo-1,2-dihydroquinoline-3-carbonitrile] here?
Answer: 7 nM

Question: With Cc1ccc2c(c1)c(N1CCCC(c3nc4ccccc4o3)CC1)c(C(N)=O)c(=O)n2C (centres unmarked) [Example 205, 4-[4-(1,3-benzoxazol-2-yl)azepan-1-yl]-1,6-dimethyl-2-oxo-1,2-dihydroquinoline-3-carboxamide] as the compound, how does the IC50 read?
Answer: 4.8 nM

Question: Cn1c(=O)c(C#N)c(N2CCC(c3nc4ccccc4o3)CC2)c2cc(F)ccc21 [Example 206, 4-[4-(1,3-benzoxazol-2-yl)piperidin-1-yl]-6-fluoro-1-methyl-2-oxo-1,2-dihydroquinoline-3-carbonitrile] was tested. Which IC50 did it give?
Answer: 0.8 nM

Question: Cc1ccc2oc(C3(C)CCN(c4c(C#N)c(=O)n(C)c5ccc(C#N)cc45)CC3)nc2c1 [Example 207, 1-methyl-4-[4-methyl-4-(5-methyl-1,3-benzoxazol-2-yl)piperidin-1-yl]-2-oxo-1,2-dihydroquinoline-3,6-dicarbonitrile] was tested. Which IC50 did it give?
Answer: 2.7 nM

Question: Which IC50 does the source give for Cc1ccc2oc(C3(C)CCN(c4c(C(N)=O)c(=O)n(C)c5ccc(C#N)cc45)CC3)nc2c1 [Example 208, 6-cyano-1-methyl-4-[4-methyl-4-(5-methyl-1,3-benzoxazol-2-yl)piperidin-1-yl]-2-oxo-1,2-dihydroquinoline-3-carboxamide] here?
Answer: 3.4 nM

Question: Cc1ccc2oc(C3(C)CCN(c4c(C#N)c(=O)n(C)c5ccc(C6CC(F)(F)C6)cc45)CC3)nc2c1 [Example 209, 6-(3,3-difluorocyclobutyl)-1-methyl-4-[4-methyl-4-(5-methyl-1,3-benzoxazol-2-yl)piperidin-1-yl]-2-oxo-1,2-dihydroquinoline-3-carbonitrile] was tested. Which IC50 did it give?
Answer: 26 nM

Question: Which IC50 does the source give for Cc1ccc2oc(C3(C)CCN(c4c(C#N)c(=O)n(C)c5ccc(C6CC6)cc45)CC3)nc2c1 [Example 210, 6-cyclopropyl-1-methyl-4-[4-methyl-4-(5-methyl-1,3-benzoxazol-2-yl)piperidin-1-yl]-2-oxo-1,2-dihydroquinoline-3-carbonitrile] here?
Answer: 119 nM

Question: Which IC50 does the source give for CCC(C)c1ccc2c(c1)c(N1CCC(C)(c3nc4cc(C)ccc4o3)CC1)c(C#N)c(=O)n2C (centres unmarked) [Example 211, 6-(butan-2-yl)-1-methyl-4-[4-methyl-4-(5-methyl-1,3-benzoxazol-2-yl)piperidin-1-yl]-2-oxo-1,2-dihydroquinoline-3-carbonitrile] here?
Answer: 456 nM

Question: Which IC50 does the source give for COCc1ccc2c(N3CCC(C)(c4nc5cc(C)ccc5o4)CC3)c(C#N)c(=O)n(C)c2c1 [Example 212, 7-(methoxymethyl)-1-methyl-4-[4-methyl-4-(5-methyl-1,3-benzoxazol-2-yl)piperidin-1-yl]-2-oxo-1,2-dihydroquinoline-3-carbonitrile] here?
Answer: 0.3 nM
